Assay results from US10711000B2 (Fronthera U.S. Pharmaceuticals LLC, priority 2018, dated 2020).
Where two headings read alike, the source gives them in different places.

Target: T1, Autotaxin (Homo sapiens, UniProt Q13822)
T1 construct: from tissue; host or cells: pooled human plasma
Assay: LPA formation in pooled human plasma (ex vivo autotaxin inhibition)
Assay type: biochemical
Conditions: 2 hours incubation
Protocol: Autotaxin is a plasma phosphodiesterase that converts lysophosphatidylcholine (LPC) into lysophosphatidic acid (LPA), therefore LPA formation was used to evaluate the potency of autotaxin inhibitors. The potency of compound was evaluated ex vivo in pooled human plasma.
Various concentrations of compound were incubated with plasma for 2 hours, and the LPA 18:2 and 20:4 concentration was measured by LC/MS/MS. To determine the LPA18:2 or 20:4 concentration in study plasma, a 10× calibration standard of LPA 18:2 or 20:4 were prepared by serial dilution in butyl alcohol: 20000, 10000, 5000, 2000, 1000, 500, 200, 100, 50, 20, and 10 ng/mL. 3 μL of calibration standard solution was added into 27.0 μL of blank plasma in 1.5-mL microcentrifuge tubes to generate 1× calibration standards. The 30.0 μL of standards or study plasma was added into 1.5-mL microcentrifuge tubes. 200 μL of butyl alcohol (containing 25.0 ng/mL LPA17:0 for internal control) was added into each 1.5-mL microcentrifuge tube containing study plasma or calibration standards. After vortexing for 1 minute and centrifuging at 10000 rpm for 10 min, 180 μL of supernatant was transferred into a 96-well plate and the LPA18:2 concentration in the plasma was quantitated using LC/MS/MS together with standards. Briefly, 8 μL of the solutions were injected for LC-MS/MS analysis using an ACQUITY UPLC BEH C18 column (2.1×50 mm, 1.7 μm) with mobile phase A [20 mM NH4OAC in water (0.1% FA)] and phase B [5 mM NH4OAC in water/0.2% FA in ACN=5:95]. Mass spectrometer parameters optimization for LPA18:2 were performed by Deprotonated molecular ion at m/z 433.2 ([M−H]^−) for LPA18:2, 457.2 for LPA20:4 and abundant product ion at m/z 152.8 for both LPA18:2 and LPA20:4 were obtained. Quantitative data were acquired in multiple reaction monitoring (MRM) negative electrospray ionization mode
The inhibition rate of LPA formation was determined by comparing the levels of LPA in treated and non-treated plasma. The data was plotted against the corresponding concentration of compound and the IC50 was calculated through non-linear regression fitting.

[1] = LPA 18:2 by LC/MS/MS, read-out: LPA formation (18:2) (IC50)
[2] = LPA 20:4 by LC/MS/MS, read-out: LPA formation (20:4) (IC50)

Compound	IC50 [1] [nM]	IC50 [2] [nM]
CCc1nn2ccc(N3CCC4(CCN(C(=O)N5CC(O)C5)C4)CC3)cc2c1N(C)c1nc(-c2ccc(F)cc2)c(C#N)s1 [Example 18, 2-((2-ethyl-5-(2-(3-hydroxyazetidine-1-carbonyl)-2,8-diazaspiro[4.5]decan-8-yl)pyrazolo[1,5-a]pyridin-3-yl)(methyl)amino)-4-(4-fluorophenyl)thiazole-5-carbonitrile]	≤ 100	≤ 100
CCc1nn2c(C)cc(N3CC4(CN(C(=O)C5(O)CCOCC5)C4)C3)cc2c1N(C)c1nc(-c2ccc(F)cc2)c(C#N)s1 [Example 56]	≤ 100	≤ 100
CCn1nc2nc(C)c(N3CC4(CN(C(=O)[C@H]5CCOC5)C4)C3)cc2c1N(C)c1nc(-c2ccc(F)cc2)c(C#N)s1 [Compound 121, (S)-2-((2-ethyl-6-methyl-5-(6-(tetrahydrofuran-3-carbonyl)-2,6-diazaspiro[3.3]heptan-2-yl)-2H-pyrazolo[3,4-b]pyridin-3-yl)(methyl)amino)-4-(4-fluorophenyl)thiazole-5-carbonitrile]	≤ 100	≤ 100
CCn1nc2ncc(N3CC4(CN(C(=O)C5(O)CCOCC5)C4)C3)cc2c1N(C)c1nc(-c2ccc(F)cc2)c(C#N)s1 [Compound 116, 2-((2-ethyl-5-(6-(4-hydroxytetrahydro-2H-pyran-4-carbonyl)-2,6-diazaspiro[3.3]heptan-2-yl)-2H-pyrazolo[3,4-b]pyridin-3-yl)(methyl)amino)-4-(4-fluorophenyl)thiazole-5-carbonitrile]	≤ 100	≤ 100
CCc1nn2ccc(N3CCC4(CCN(C(=O)N5CC(O)C5)C4)C3)cc2c1N(C)c1nc(-c2ccc(F)cc2)c(C#N)s1 (stereo not drawn) [Example 20, 2-((2-ethyl-5-(7-(3-hydroxyazetidine-1-carbonyl)-2,7-diazaspiro[4.4]nonan-2-yl)pyrazolo[1,5-a]pyridin-3-yl)(methyl)amino)-4-(4-fluorophenyl)thiazole-5-carbonitrile]	≤ 100	≤ 100
CCc1nn2c(C)cc(N3CC4(CN(C(=O)c5ccco5)C4)C3)cc2c1N(C)c1nc(-c2ccc(F)cc2)c(C#N)s1 [Example 66, 2-((2-ethyl-5-(6-(furan-2-carbonyl)-2,6-diazaspiro[3.3]heptan-2-yl)-7-methylpyrazolo[1,5-a]pyridin-3-yl)(methyl)amino)-4-(4-fluorophenyl)thiazole-5-carbonitrile]	≤ 100	≤ 100
CCc1nn2c(C)cc(N3CCN(CC(=O)N4CC(O)C4)CC3)cc2c1N(C)c1nc(-c2ccc(F)cc2)c(C#N)s1 [Example 23, 2-((2-ethyl-5-(4-(2-(3-hydroxyazetidin-1-yl)-2-oxoethyl)piperazin-1-yl)-7-methylpyrazolo[1,5-a]pyridin-3-yl)(methyl)amino)-4-(4-fluorophenyl)thiazole-5-carbonitrile]	100 to 500	100 to 500
CCc1nn2ccc(N3CC4(CC4C(=O)N4CC(O)C4)C3)cc2c1N(C)c1nc(-c2ccc(F)cc2)c(C#N)s1 (stereo not drawn) [Example 7, 2-((2-ethyl-5-(1-(3-hydroxyazetidine-1-carbonyl)-5-azaspiro[2.3]hexan-5-yl)pyrazolo[1,5-a]pyridin-3-yl)(methyl)amino)-4-(4-fluorophenyl)thiazole-5-carbonitrile]	100 to 500	100 to 500
CCc1nn2c(C)cc(N3CC4(CCN(C(=O)C(C)(C)O)C4)C3)cc2c1N(C)c1nc(-c2ccc(F)cc2)c(C#N)s1 [Example 53, 2-((2-ethyl-5-(6-(2-hydroxy-2-methylpropanoyl)-2,6-diazaspiro[3.4]octan-2-yl)-7-methylpyrazolo[1,5-a]pyridin-3-yl)(methyl)amino)-4-(4-fluorophenyl)thiazole-5-carbonitril]	≤ 100	≤ 100
CCc1nn2c(C)cc(N3CCC4(CCN(C(=O)N5CC(O)C5)C4)CC3)cc2c1N(C)c1nc(-c2ccc(F)cc2)c(C#N)s1 [Example 37, 2-((2-ethyl-5-(2-(3-hydroxyazetidine-1-carbonyl)-2,8-diazaspiro[4.5]decan-8-yl)-7-methylpyrazolo[1,5-a]pyridin-3-yl)(methyl)amino)-4-(4-fluorophenyl)thiazole-5-carbonitrile]	≤ 100	≤ 100
CCc1nn2c(C)cc(N3CCC4(CN(CC(O)CO)C4)C3)cc2c1N(C)c1nc(-c2ccc(F)cc2)c(C#N)s1 (stereo not drawn) [Example 55, 2-((5-(2-(2,3-dihydroxypropyl)-2,6-diazaspiro[3.4]octan-6-yl)-2-ethyl-7-methylpyrazolo[1,5-a]pyridin-3-yl)(methyl)amino)-4-(4-fluorophenyl)thiazole-5-carbonitrile]	100 to 500	100 to 500
CCc1nn2c(C)cc(N3CC4(CCN(C(=O)C5CCOCC5)C4)C3)cc2c1N(C)c1nc(-c2ccc(F)cc2)c(C#N)s1 [Example 44, 2-((2-ethyl-7-methyl-5-(6-(tetrahydro-2H-pyran-4-carbonyl)-2,6-diazaspiro[3.4]octan-2-yl)pyrazolo[1,5-a]pyridin-3-yl)(methyl)amino)-4-(4-fluorophenyl)thiazole-5-carbonitrile]	≤ 100	≤ 100
CCc1nn2c(C)cc(N3CC4(CN(C(=O)C5CCCO5)C4)C3)cc2c1N(C)c1nc(-c2ccc(F)cc2)c(C#N)s1 (stereo not drawn) [Example 38, 2-((2-ethyl-7-methyl-5-(6-(tetrahydrofuran-2-carbonyl)-2,6-diazaspiro[3.3]heptan-2-yl)pyrazolo[1,5-a]pyridin-3-yl)(methyl)amino)-4-(4-fluorophenyl)thiazole-5-carbonitrile]	≤ 100	≤ 100

Further lines, results first:

IC50 [1] [nM]	IC50 [2] [nM]	Compound
≤ 100	≤ 100	Cc1cc(N2CC3(CN(C(=O)C4(O)CCOCC4)C3)C2)cc2c(N(C)c3nc(-c4ccc(F)cc4)c(C#N)s3)c(C3CC3)nn12 [Example 90, 2-((2-cyclopropyl-5-(6-(4-hydroxytetrahydro-2H-pyran-4-carbonyl)-2,6-diazaspiro[3.3]heptan-2-yl)-7-methylpyrazolo[1,5-a]pyridin-3-yl)(methyl)amino)-4-(4-fluorophenyl)thiazole-5-carbonitrile]
100 to 500	500 to 1000	Cc1cc(N2CCN(C3COC3)CC2)cc2c(N(C)c3nc(-c4ccc(F)cc4)c(C#N)s3)c(C3CC3)nn12 [Example 94, 2-((2-cyclopropyl-7-methyl-5-(4-(oxetan-3-yl)piperazin-1-yl)pyrazolo[1,5-a]pyridin-3-yl)(methyl)amino)-4-(4-fluorophenyl)thiazole-5-carbonitrile]
100 to 500	100 to 500	CCc1nn2c(C)cc(N3CCC4(CN(C[C@@H](O)CO)C4)C3)cc2c1N(C)c1nc(-c2ccc(F)cc2)c(C#N)s1 [Example 69, (R)-2-((5-(2-(2,3-dihydroxypropyl)-2,6-diazaspiro[3.4]octan-6-yl)-2-ethyl-7-methylpyrazolo[1,5-a]pyridin-3-yl)(methyl)amino)-4-(4-fluorophenyl)thiazole-5-carbonitrile]
≤ 100	≤ 100	Cc1cc(N2CC3(CN(C(=O)C4CN(C)C4)C3)C2)cc2c(N(C)c3nc(-c4ccc(F)cc4)c(C#N)s3)c(C3CC3)nn12 [Example 84, 2-((2-cyclopropyl-7-methyl-5-(6-(1-methylazetidine-3-carbonyl)-2,6-diazaspiro[3.3]heptan-2-yl)pyrazolo[1,5-a]pyridin-3-yl)(methyl)amino)-4-(4-fluorophenyl)thiazole-5-carbonitrile]
> 1000	> 1000	Cc1cc(N2CC(O)C2)cc2c(N(C)c3nc(-c4ccc(F)cc4)c(C#N)s3)c(C3CC3)nn12 [Example 87, 2-[[2-cyclopropyl-5-(3-hydroxyazetidin-1-yl)-7-methyl-pyrazolo[1,5-a]pyridin-3-yl]-methyl-amino]-4-(4-fluorophenyl)thiazole-5-carbonitrile]
≤ 100	≤ 100	Cc1cc(N2CC3(CN(C(=O)[C@H]4CCOC4)C3)C2)cc2c(N(C)c3nc(-c4ccc(F)cc4)c(C#N)s3)c(C3CC3)nn12 [Example 78, (S)-2-((2-cyclopropyl-7-methyl-5-(6-(tetrahydrofuran-3-carbonyl)-2,6-diazaspiro[3.3]heptan-2-yl)pyrazolo[1,5-a]pyridin-3-yl)(methyl)amino)-4-(4-fluorophenyl)thiazole-5-carbonitrile]
500 to 1000	500 to 1000	Cc1cc(N2CCN(CC(N)=O)CC2)cc2c(N(C)c3nc(-c4ccc(F)cc4)c(C#N)s3)c(C3CC3)nn12 [Example 79]
100 to 500	100 to 500	CCc1nn2c(C)cc(N3CC4(CN(C(=O)[C@H](O)CO)C4)C3)cc2c1N(C)c1nc(-c2ccc(F)cc2)c(C#N)s1 (single isomer, unassigned) [Example 75]
